Consider 15 compounds from patent publication US5523303A, “Trisubstituted cycloalkane derivatives and process for the preparation thereof” (Egis Gyogyszergyar Rt., priority 1993, dated 1996).

Like-named read-outs stand apart in the source and are kept apart here. Where only a bound is given, the exact number is not on record here.

As a reminder, the IC50 is the point on the concentration scale where inhibition reaches its midpoint. A higher IC50 goes with a need for much substance. In general, ED50 refers to the midpoint of the dose-response relation. The term LD50 denotes the dose expected to kill half of the subjects tested.

One data set concerns the target T1, H^+ K^+ -ATP-ase (Sus scrofa, UniProt P19156).
T1 construct: on partially purified pig's microsome specimen; from tissue; host or cells: pig stomach, partially purified microsomes
Nature of the data set: H+/K+-ATP-ase inhibition on partially purified pig's microsome specimen (method of Rabon and Sachs). The format is biochemical. On the procedure:
1. H^+ /K^+ -ATP-ase inhibition on pig'stomach. The test was carried out according to the method of Rabon and Sachs [E. C. Rabon, W. B. I. and G. Sachs: Preparation of gastric H^+ /K^+ -ATP-ase. Methods in Enzymology, 157, 649-651 (1988)]. The activity of the prepared enzyme was measured both in the presence and in the absence of K^+ ions. The difference in the liberation of phosphorus representing the activity of the enzyme was measured.

In another data set the test system is gastric-acid-secretion. Nature of the data set: Gastric-acid-secretion inhibition on rats (method of Shay et al.). It counts as in vivo. Conditions: Rattus norvegicus, po, read-out: Acid-secretion inhibition, ED50. On the procedure:
2. […] The liberated gastric acid content was determined by titration 4 hours after the ligature of the duodenum.

A short description of data set [1]: Acute toxicity on mice (method of Lichtfield and Wilcoxon), LD50. The following applies: mouse, in vivo, po, 14 days observation. On the procedure: The test was carried out according to the method of Lichtfield and Wilcoxon [Lichtfield, J. T. and Wilcoxon, F. W.: J. Pharmacol. Exp. Ther., 96, 99 (1949)] by using white mice belonging to the CFLP strain and weighing 10 to 22 g, 10 animals per dose. The test compounds were administered orally in a volume of 20 cm3 /kg.

Data set [2] deals with erosion of the stomach wall. The data set is described as follows: Cytoprotective effect: inhibition of ethanol-induced erosion of the stomach wall on rats (method of Robert). It counts as in vivo. The following applies: for ED50: Rattus norvegicus, po; for Ratio of acid-secretion inhibition and erosion inhibition: ratio of the ED50 values. On the procedure: 3. The cytoprotective effect was determined on rats according to the method of Robert [Robert, A.: Cytoprotection by prostaglandins. […] Rats weighing 200 to 250 g were used as test animals. 1 cm^3 of abs. ethanol was introduced to the stomach to produce an erosion of the stomach wall. The length and frequency of the lesions (erosion index and frequency) were measured and the percentage inhibition of lesion formation compared with vehicle-treated animals was calculated.

Data set [3] in a line: Acute toxicity on mice (method of Lichtfield and Wilcoxon), LD50. Conditions: mouse, in vivo, ip, 14 days observation.
The test system of a further data set is beta-adrenergic. Conditions: prior art; cited from earlier work.
The next data set concerns lipid level. Conditions: prior art; cited from earlier work.
The conditions of data set [4]: prior art; cited from earlier work.
Setting [5] is: rats, p.o., 4 hours after ligature.

T1 sequence (P19156 2-1034 limits assumed): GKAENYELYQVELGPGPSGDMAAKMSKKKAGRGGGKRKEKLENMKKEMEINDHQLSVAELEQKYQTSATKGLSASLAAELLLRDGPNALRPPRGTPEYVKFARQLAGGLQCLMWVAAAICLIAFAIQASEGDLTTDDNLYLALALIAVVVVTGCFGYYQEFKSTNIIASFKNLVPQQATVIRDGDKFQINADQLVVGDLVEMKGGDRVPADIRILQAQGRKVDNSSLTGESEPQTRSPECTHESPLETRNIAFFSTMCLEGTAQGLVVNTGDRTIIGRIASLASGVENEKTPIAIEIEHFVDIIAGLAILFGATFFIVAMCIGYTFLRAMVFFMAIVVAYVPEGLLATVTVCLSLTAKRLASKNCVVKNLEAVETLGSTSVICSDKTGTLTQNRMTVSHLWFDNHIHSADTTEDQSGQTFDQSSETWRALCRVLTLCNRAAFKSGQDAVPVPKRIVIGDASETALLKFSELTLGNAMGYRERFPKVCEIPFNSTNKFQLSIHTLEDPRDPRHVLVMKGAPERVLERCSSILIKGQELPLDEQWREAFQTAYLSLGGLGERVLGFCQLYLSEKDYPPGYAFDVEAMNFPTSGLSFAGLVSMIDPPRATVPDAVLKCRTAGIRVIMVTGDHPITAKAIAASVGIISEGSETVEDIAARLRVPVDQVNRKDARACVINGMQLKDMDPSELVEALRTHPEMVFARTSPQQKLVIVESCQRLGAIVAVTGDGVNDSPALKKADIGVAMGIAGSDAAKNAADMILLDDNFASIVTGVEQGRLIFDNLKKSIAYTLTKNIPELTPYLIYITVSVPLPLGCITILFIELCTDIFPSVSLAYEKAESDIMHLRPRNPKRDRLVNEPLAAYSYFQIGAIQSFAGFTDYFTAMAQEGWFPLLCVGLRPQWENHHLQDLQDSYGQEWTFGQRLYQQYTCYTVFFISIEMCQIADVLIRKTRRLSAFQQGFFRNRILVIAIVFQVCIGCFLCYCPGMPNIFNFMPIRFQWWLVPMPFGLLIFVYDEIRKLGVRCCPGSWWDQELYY
T1 sequence (P18434 whole entry partner): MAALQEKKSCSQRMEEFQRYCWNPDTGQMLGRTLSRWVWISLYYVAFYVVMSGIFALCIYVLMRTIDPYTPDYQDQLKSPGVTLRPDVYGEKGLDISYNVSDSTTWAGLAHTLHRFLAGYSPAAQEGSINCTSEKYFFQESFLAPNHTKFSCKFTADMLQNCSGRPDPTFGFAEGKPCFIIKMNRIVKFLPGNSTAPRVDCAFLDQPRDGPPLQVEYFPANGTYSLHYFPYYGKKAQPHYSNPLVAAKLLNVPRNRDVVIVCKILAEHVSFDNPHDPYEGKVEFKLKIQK

For the compound `CC(CO/N=C1/C(=C/c2ccc(F)cc2)CCCC1C)CN(C)C` (racemic) [Example 9, (R,S)-6-(E)-(4-Fluorophenylmethylene)-2-methyl-1-(E)-[3-(dimethylamino)-2-methylpropoxyimino]-cyclohexane], the IC50 against H^+ K^+ -ATP-ase was above 30 µM. Further, the ED50 in the data set on gastric-acid-secretion (setting [5]) was 30 to 120 mg/kg; in data set [2] (abs. ethanol), 1.2 mg/kg. The 50% lethal dose (LD50) at 336 h in data set [1] was 600 mg/kg; in data set [3], around 300 mg/kg. The “Ratio of acid-secretion inhibition and erosion inhibition” value in data set [2] (p.o.) is recorded as 25-100.
In turn, `CCCCCC1CCCC(=C\c2ccc(F)cc2)/C1=N/OCCN1CCN(Cc2ccccc2)CC1` (racemic) [Example 31, (R,S)-6-(E)-(4-Fluorophenylmethylene)-2-pentyl-1-(E)-[2-(4-phenylmethyl-1-piperazinyl)-ethoxyimino]-cyclohexane] registered an IC50 against H^+ K^+ -ATP-ase above 30 µM. For the same compound, the figures for the ED50 (in the data set on gastric-acid-secretion (setting [5]); in data set [2] (abs. ethanol)) were 200 mg/kg and 3.9 mg/kg, respectively. Also, the values for the LD50 at 336 h in data set [1] and in data set [3] were above 1000 mg/kg and above 300 mg/kg, respectively. In data set [2] (p.o.), the “Ratio of acid-secretion inhibition and erosion inhibition” value was determined as 50.
The compound `CCCCCCC1CCCC(=C\c2ccccc2OC)/C1=N/OCCN(CC)CC` (racemic) [Example 34, (R,S)-6-(E)-(2-Methoxyphenylmethylene)-2-hexyl-1-(E)-[2-(diethylamino)-ethoxyimino]-cyclohexane] showed an IC50 at H^+ K^+ -ATP-ase of 5 µM. Also, the figures for the ED50 (in the data set on gastric-acid-secretion (setting [5]); in data set [2] (abs. ethanol)) were 103 mg/kg and 1.4 mg/kg, respectively. Moreover, the LD50 at 336 h in data set [1] is around 1000 mg/kg; in data set [3], 88 mg/kg. Also, in data set [2] (p.o.), the “Ratio of acid-secretion inhibition and erosion inhibition” value is recorded as 73.4.
In the case of `CCCCCCCC1CCCC(=C\c2ccc(F)cc2)/C1=N/OCCN(C)C` (racemic) [Example 35, (R,S)-6-(E)-(4-Fluorophenylmethylene)-2-heptyl-1-(E)-[2-(dimethylamino)-ethoxyimino]-cyclohexane], the ED50 in the data set with gastric-acid-secretion (setting [5]) was below 200 mg/kg; in data set [2] (abs. ethanol) it was 2.9 mg/kg. In addition, the LD50 at 336 h in data set [1] is above 1000 mg/kg; in data set [3] it was 100 to 300 mg/kg. Besides, the “Ratio of acid-secretion inhibition and erosion inhibition” value in data set [2] (p.o.) was at most 70.
At H^+ K^+ -ATP-ase, `CCCC1CCCCC(=C\c2ccc(Cl)cc2)/C1=N/OCCN(CC)CC` (racemic) [Example 40, (R,S)-7-(E)-(4-Chlorophenylmethylene)-2-propyl-1-(E)-[2-(diethylamino)-ethoxyimino]-cycloheptane] displayed an IC50 of 7 µM. In addition, the ED50 was found to be 52.9 mg/kg with gastric-acid-secretion (setting [5]) and 2.6 mg/kg in data set [2] (abs. ethanol). Moreover, the LD50 at 336 h is above 1000 mg/kg in data set [1] and 100 to 300 mg/kg in data set [3]. Moreover, in data set [2] (p.o.), the “Ratio of acid-secretion inhibition and erosion inhibition” value is listed as 20.
At H^+ K^+ -ATP-ase, `CCN(CC)CCO/N=C1/C(=C/c2ccc(Cl)c(Cl)c2)CCCC1C` (racemic) [Example 41, (R,S)-6-(E)-(3,4-Dichlorophenylmethylene)-2-methyl-1-(E)-[2-(diethylamino)-ethoxyimino]-cyclohexane] gave an IC50 of 17 µM. In addition, the LD50 at 336 h was above 1000 mg/kg in data set [1] and 100 to 300 mg/kg in data set [3].
Compound `CCCC1CCCCC(=C\c2ccc(Cl)cc2)/C1=N/OCC(O)CN1CCCC1` (racemic) [Example 44, (R,S)-2-Propyl-7-(E)-(4-chlorophenylmethylene)-1-(E)-[2-hydroxy-3-(N-pyrrolidinylpropoxyimino)]-cycloheptane] displayed an IC50 at H^+ K^+ -ATP-ase of 10 µM. Further, the ED50 in the data set with gastric-acid-secretion (setting [5]) is 50 to 200 mg/kg; in data set [2] (abs. ethanol) it was 1.6 mg/kg. In addition, the median lethal dose (LD50) at 336 h in data set [1] was above 1000 mg/kg; in data set [3], 100 to 300 mg/kg.
Consider `CN/C(=N/CCSCc1nc[nH]c1C)NC#N` [Cimetidine, reference compound], for which the values for the ED50 (in the data set with gastric-acid-secretion (4 h); in data set [2] (abs. ethanol)) were 59.1 mg/kg and 100 to 200 mg/kg, respectively. Besides, in data set [2] (p.o.), the “Ratio of acid-secretion inhibition and erosion inhibition” value is listed as 0.3-0.6.
For `CC(=NOCC(O)CNC(C)(C)C)C1CC1` (stereo not drawn) [Falintolol], the beta-adrenergic blocking activity entry in the data set on beta-adrenergic is listed as “exhibit beta-adrenergic blocking activity”.
Turning to `CC(C)(C)NCC(O)CON=C1c2ccccc2-c2ccccc21` (stereo not drawn) [IPS-339], in the data set with beta-adrenergic, the beta-adrenergic blocking activity entry is listed as “exhibit beta-adrenergic blocking activity”.
On to `COc1ccc2[nH]c([S+]([O-])Cc3ncc(C)c(OC)c3C)nc2c1` (stereo not drawn) [Omeprazole, reference compound], for which the ED50 worked out at 3.9 mg/kg in the data set on gastric-acid-secretion (setting [5]) and 4.5 mg/kg in data set [2] (abs. ethanol). For the same compound, the “Ratio of acid-secretion inhibition and erosion inhibition” value in data set [2] (p.o.) is 0.9.
As to `OC(CON=Cc1ccc(Cl)cc1)CN1CCN(c2ccccc2Cl)CC1` (stereo not drawn) [Peraclopon], the lipid level lowering entry in the data set with lipid level is listed as “lipid level lowering agent”.
`COc1cccc(C=NOCC(O)CN2CCN(c3ccccc3OC)CC2)c1` (stereo not drawn) [Peradoxime]: in data set [4], the hypotensive effect result was “has a hypotensive effect”.
As for `CN1CCN(CC(=O)N2c3ccccc3C(=O)Nc3cccnc32)CC1` [Pirenzepine, reference compound], the ED50 worked out at 7.9 mg/kg with gastric-acid-secretion (setting [5]) and 18.6 mg/kg in data set [2] (abs. ethanol). In data set [2] (p.o.), the “Ratio of acid-secretion inhibition and erosion inhibition” value stood at 0.4.
Turning to Sucralfate [reference compound], the Ethanol erosion ED50 in data set [2] (p.o., abs. ethanol) was 69 mg/kg.
